Patent US12303483B2, “Lipase degradation resistant surfactants for use in large molecule therapeutic formulations” (Janssen Biotech, Inc., priority 2018, dated 2025)

Tests used:
Assay type in all cases: physicochemical
[1] = tested on: lipases immobilized on beads; test: Surfactant stock solutions exposed to lipases immobilized on beads, surfactant quantitation by UPLC-ELSD (Example 2); settings: over the course of 18 days
From the text: Materials: Surfactants investigated in this study included PFA and polysorbates. Two PFA, Brij® 35 (L23) (Product #ET47399, CAS #9002-92-0) and Brij® 98 (020) (Product #ET40118, CAS #9004-98-2), were obtained from Croda International PLC (East Yorkshire, UK). Polysorbate 20 (Product #4116-04, CAS #9005-64-5) and polysorbate 80 (Product #4117-03, CAS #9005-65-6) were obtained from JT Baker (Center Valley, Pennsylvania). Lipase immobilized on polystyrene beads at 2.0 U/mg (Product Number 73940) was obtained from Fluka (Denmark). All monoclonal antibodies (mAbs) were produced or acquired by Janssen Supply Chain, LLC (Horsham, Pennsylvania) and purified in a series of chromatography and filtration steps.
Surfactant Quantitation. Surfactant quantitation of samples was performed using UPLC with evaporative light scattering detection. Duplicate 7.5 μL sample injections were injected into an OASIS MAX column (30 μm, 2.1×20 mm). The mobile phase consisted of a gradient of milliQ water and isopropanol with 2% formic acid. The integrated area for each sample's eluting peak was assessed against a surfactant standard curve created from serial dilution of each surfactant type ranging from 0.005% (w/v) to 0.08% (w/v).
Stock solutions of PFA and polysorbate surfactants were exposed to lipases immobilized on beads over a period of 18 days. Surfactant levels in the solutions were quantified periodically over the course of testing to determine the extent of lipase-mediated degradation.

IgG4 mAb C = test: SEC percent monomer, formulation spiked with lipase-exposed surfactant (Example 3), mAb C; settings: 0.01% surfactant exposed to lipase; mAb C (FIG. 3C)
Experimental: (§1) Size Exclusion Chromatography (SEC). The soluble aggregation quality attribute of the investigated formulations was evaluated using size exclusion ultra performance liquid chromatography (SE-UPLC). To prepare samples for analysis, collected formulations from each condition (time zero (T0) control, shaking stress, and thermal stress followed by shaking stress) were diluted with formulation buffer of each respective mAb from 50 mg/mL to 2 mg/mL. SEC runs were conducted with a 5 μL injection of sample into an Acquity UPLC 200 Å, 1.7 μm column using a 0.2 M sodium phosphate mobile phase. Eluting peaks were integrated to determine monomer content based on percent area of the main peak relative to sum of all peak areas.
(§2) Further studies evaluated the ability of PFA and polysorbate formulations to retain their protective effects after exposures of the surfactants to lipase. The mAb formulations were spiked with surfactants that had been exposed to lipase-beads and then subjected to shaking stress or thermal stress followed by shaking. The mAb formulations were then evaluated for soluble aggregation and particulate matter using SEC and DLS, respectively.

bispecific mAb A = test: SEC percent monomer, formulation spiked with lipase-exposed surfactant (Example 3), mAb A; settings: mAb A (FIG. 3A)
Experimental: as §1, §2

[2] = tested on: mAbs A, B and C (50 mg/mL formulations); test: SEC percent monomer of mAb formulations with surfactant after shaking or thermal stress (Example 1); settings: 0.01% (w/v) surfactant; 3-month storage at 25° C. followed by shaking stress; compared with polysorbate (PS20 and PS80) formulations; Student's t-test p<0.01
Experimental: as §1
To assess the protective effects of different surfactants in mAb formulations, polysorbate and PFA was spiked into formulations for three different mAbs. mAbs A and B are bispecific antibodies, and mAb C is an IgG4 monoclonal antibody. The formulations for mAbs A and B comprised 10 mM histidine, 8.5% (w/v) sucrose, at pH 5.7. The mAb C formulation consisted of 10 mM sodium phosphate, 8.5% (w/v) sucrose, 10 ppm EDTA, at pH 7.1. […] Each formulation condition was evaluated with vials in triplicate. The impact of the surfactant type and concentration was assessed using size exclusion chromatography (SEC).

| Substance | surfactant level in stock solutions exposed to lipases [1] | percent monomer content (SEC) versus control formulation without any surfactant (IgG4 mAb C) | percent monomer content (SEC) versus control formulation without any surfactant (bispecific mAb A; 0.01% surfactant exposed to lipase) | percent monomer content (SEC) versus control formulation without any surfactant (bispecific mAb A; 0.04% surfactant exposed to lipase) | percent monomer content (SEC) [2] |
| --- | --- | --- | --- | --- | --- |
| polysorbate 20 [PS20] | declined significantly | lower percent monomer content |  |  |  |
| polysorbate 80 [PS80] | declined significantly |  | lower percent monomer content | lower percent monomer content |  |
| polyoxyethylene (23) lauryl ether [Brij® L23] | remained relatively constant |  |  |  | retain higher percent monomer content |
| polyoxyethylene (20) oleyl ether [Brij® 020] | remained relatively constant |  |  |  | retain higher percent monomer content |
